Data as given in patent publication US20230265151A1, “GIP/GLP1 CO-AGONIST COMPOUNDS” (priority 2020, published 2023).
Read-outs that look alike come from different tables or passages of the source. *1 amine or outer side, *2 acyl side, *3 side chain or, on linkers, in order; H or OH if unused. Where a SMILES comes first, the peptide text is derived from it. Side-chain parts run from the residue outwards. [ ]: non-standard residue; d: D form. The star is where a group is joined. αMePhe(2-F) = C[C@](N)(Cc1ccccc1F)C(=O)O; γGlu = O=C(O)[C@H](CCC(=O)[*:2])N[*:1]; C14 diacid = O=C(O)CCCCCCCCCCCCC(=O)*; αMeY = C[C@](N)(Cc1ccc(O)cc1)C(=O)O; αMeL = CC(C)C[C@](C)(N)C(=O)O; Orn = NCCC[C@H](N)C(=O)O; AEEA = NCCOCCOCC(=O)O; Aib = CC(C)(N)C(=O)O

Key:
Type in all cases: cell-based
hGCGR = biological target: T1, hGCGR (Homo sapiens, UniProt P47871); assay: Functional cAMP formation (HTRF) in HEK-293 clonal cells expressing hGCGR, 0.1% bovine casein, without or with 1.0% human serum albumin; settings: 37° C., geometric mean, read-out: hGCGR EC50, nM (SEM, n)
T1 construct: expressed in transfected cells
T1 sequence (P47871 26-477): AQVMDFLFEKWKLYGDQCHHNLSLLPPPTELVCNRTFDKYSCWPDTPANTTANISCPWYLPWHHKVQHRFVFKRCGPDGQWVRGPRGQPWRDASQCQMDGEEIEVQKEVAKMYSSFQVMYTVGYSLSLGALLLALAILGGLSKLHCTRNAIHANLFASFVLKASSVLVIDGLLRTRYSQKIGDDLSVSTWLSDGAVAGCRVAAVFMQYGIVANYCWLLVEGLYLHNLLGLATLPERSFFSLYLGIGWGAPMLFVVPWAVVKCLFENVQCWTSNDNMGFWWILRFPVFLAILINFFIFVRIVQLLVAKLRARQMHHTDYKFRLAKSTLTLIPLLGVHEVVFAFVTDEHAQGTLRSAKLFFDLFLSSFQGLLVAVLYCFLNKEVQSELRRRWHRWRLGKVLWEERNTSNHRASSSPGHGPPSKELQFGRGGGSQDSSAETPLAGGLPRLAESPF
Procedure, shortened: (§1)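 Cells were stimulated with peptide for 30 min at 37° C, then intracellular cAMP was measured by competitive HTRF (665/620 nm ratio) and converted to nM using a cAMP standard curve. Relative EC50 and Emax came from four-parameter logistic fits of percent maximal response against peptide concentration.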

hGIPR = biological target: T2, hGIPR (Homo sapiens, UniProt P48546); assay: Functional cAMP formation (HTRF) in HEK-293 clonal cells expressing hGIPR, 0.1% bovine casein, without or with 1.0% human serum albumin; settings: 37° C.; for Emax: percent of maximal response to GIP(1-42)NH2, read-out: hGIPR Emax, % ± SEM; for EC50: cAMP, 0.1% bovine casein (no human serum albumin), geometric mean, read-out: hGIPR EC50, nM (SEM, n)
T2 construct: expressed in transfected cells
T2 sequence (P48546 22-466): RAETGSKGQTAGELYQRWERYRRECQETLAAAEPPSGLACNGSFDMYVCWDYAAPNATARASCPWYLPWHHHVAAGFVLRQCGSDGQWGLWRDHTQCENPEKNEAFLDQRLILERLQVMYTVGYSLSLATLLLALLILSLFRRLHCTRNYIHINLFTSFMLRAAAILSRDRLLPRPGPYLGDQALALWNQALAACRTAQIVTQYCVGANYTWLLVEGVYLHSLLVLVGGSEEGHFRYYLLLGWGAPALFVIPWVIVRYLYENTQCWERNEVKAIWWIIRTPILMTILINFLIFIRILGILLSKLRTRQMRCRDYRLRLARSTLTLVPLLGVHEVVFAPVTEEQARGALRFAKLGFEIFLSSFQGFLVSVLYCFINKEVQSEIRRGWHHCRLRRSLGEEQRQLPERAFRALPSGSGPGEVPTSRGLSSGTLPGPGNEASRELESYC
Procedure, shortened: as §1

hGLP-1R = hGLP-1R (Homo sapiens, UniProt P43220); assay: Functional cAMP formation (HTRF) in HEK-293 clonal cells expressing hGLP-1R, 0.1% bovine casein, without or with 1.0% human serum albumin; parameters: expressed in transfected cells; settings: 37° C.; for EC50: geometric mean, read-out: hGLP-1R EC50, nM (SEM, n); for Emax: percent of maximal response to GLP-1(7-36)NH2, read-out: hGLP-1R Emax, % ± SEM
Sequence of hGLP-1R (P43220 24-463): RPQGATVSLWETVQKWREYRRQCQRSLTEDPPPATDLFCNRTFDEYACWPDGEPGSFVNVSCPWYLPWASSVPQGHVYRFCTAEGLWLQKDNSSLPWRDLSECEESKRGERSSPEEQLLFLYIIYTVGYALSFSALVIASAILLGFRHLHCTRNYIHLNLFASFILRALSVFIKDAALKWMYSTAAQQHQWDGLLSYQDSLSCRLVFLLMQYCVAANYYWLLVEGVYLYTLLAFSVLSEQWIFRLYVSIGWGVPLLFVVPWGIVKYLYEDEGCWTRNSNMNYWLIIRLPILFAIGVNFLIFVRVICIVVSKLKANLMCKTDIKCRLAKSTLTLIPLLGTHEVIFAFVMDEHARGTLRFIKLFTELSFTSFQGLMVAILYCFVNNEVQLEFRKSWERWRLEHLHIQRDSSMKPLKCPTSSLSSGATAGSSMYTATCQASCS
Procedure, shortened: as §1

[1] = 0.1% bovine casein and 1.0% human serum albumin
[2] = cAMP, 0.1% bovine casein (no human serum albumin)
[3] = HEK293, 0.1% bovine casein and 1.0% human serum albumin
[4] = HEK293, cAMP, 0.1% bovine casein, arithmetic mean

| Structure (SMILES) | EC50 (hGCGR; [1]) [nM] | EC50 (hGCGR; [2]) [nM] | Emax (hGIPR; [3]) [%] | Emax (hGIPR; [4]) [%] | EC50 (hGIPR) [nM] | EC50 (hGLP-1R; [1]) [nM] | Emax (hGLP-1R; [3]) [%] | Emax (hGLP-1R; [4]) [%] | EC50 (hGLP-1R; [2]) [nM] |
| --- | --- | --- | --- | --- | --- | --- | --- | --- | --- |
| CC[C@H](C)[C@H](NC(=O)[C@H](CCCN)NC(=O)[C@H](CC(=O)O)NC(=O)[C@H](CC(C)C)NC(=O)[C@](C)(CC(C)C)NC(=O)[C@@H](NC(=O)[C@H](CO)NC(=O)[C@H](Cc1ccc(OC)cc1)NC(=O)[C@H](CC(=O)O)NC(=O)[C@H](CO)NC(=O)[C@@H](NC(=O)[C@](C)(Cc1ccccc1F)NC(=O)[C@@H](NC(=O)CNC(=O)[C@H](CCC(=O)O)NC(=O)C(C)(C)NC(=O)[C@@H](N)Cc1ccc(O)cc1)[C@@H](C)O)[C@@H](C)O)[C@@H](C)CC)C(=O)N[C@@H](C)C(=O)N[C@@H](CCC(N)=O)C(=O)NC(C)(C)C(=O)N[C@@H](CCCCNC(=O)COCCOCCNC(=O)COCCOCCNC(=O)CC[C@H](NC(=O)CCCCCCCCCCCCC(=O)O)C(=O)O)C(=O)N[C@@H](Cc1ccccc1)C(=O)N[C@H](C(=O)N[C@H](CCC(=O)O)C(=O)N[C@@](C)(Cc1ccc(O)cc1)C(=O)N[C@@H](CC(C)C)C(=O)N[C@H](C(=O)N[C@@H](CCCCNC(=O)COCCOCCNC(=O)COCCOCCNC(=O)CC[C@H](NC(=O)CCCCCCCCCCCCC(=O)O)C(=O)O)C(=O)NCC(=O)NCC(=O)N1CCC[C@H]1C(=O)N[C@@H](CO)C(=O)N[C@@H](CO)C(=O)NCC(=O)N[C@@H](C)C(=O)N1CCC[C@H]1C(=O)N1CCC[C@H]1C(=O)N1CCC[C@H]1C(=O)N[C@@H](CO)C(N)=O)[C@@H](C)CC)[C@@H](C)CC [Example 263] | > 9950 | > 9950 | 72.7 | 88.6 | 0.0214 | 56.7 | 95.8 | 98.5 | 0.294 |
| CC[C@H](C)[C@H](NC(=O)[C@H](CCCN)NC(=O)[C@H](CC(=O)O)NC(=O)[C@H](CC(C)C)NC(=O)[C@](C)(CC(C)C)NC(=O)[C@@H](NC(=O)[C@H](CO)NC(=O)[C@H](Cc1ccc(OC)cc1)NC(=O)[C@H](CC(=O)O)NC(=O)[C@H](CO)NC(=O)[C@@H](NC(=O)[C@](C)(Cc1ccccc1F)NC(=O)[C@@H](NC(=O)CNC(=O)[C@H](CCC(=O)O)NC(=O)C(C)(C)NC(=O)[C@@H](N)Cc1ccc(O)cc1)[C@@H](C)O)[C@@H](C)O)[C@@H](C)CC)C(=O)N[C@@H](C)C(=O)N[C@@H](CCC(N)=O)C(=O)NC(C)(C)C(=O)N[C@@H](CCCCNC(=O)COCCOCCNC(=O)COCCOCCNC(=O)CC[C@H](NC(=O)CCCCCCCCCCCCC(=O)O)C(=O)O)C(=O)N[C@@H](Cc1ccccc1)C(=O)N[C@H](C(=O)N[C@H](CCC(=O)O)C(=O)N[C@@](C)(Cc1ccc(O)cc1)C(=O)N[C@@H](CC(C)C)C(=O)N[C@H](C(=O)N[C@@H](CCC(=O)O)C(=O)NCC(=O)NCC(=O)N1CCC[C@H]1C(=O)N[C@@H](CO)C(=O)N[C@@H](CO)C(=O)NCC(=O)N[C@@H](C)C(=O)N1CCC[C@H]1C(=O)N1CCC[C@H]1C(=O)N1CCC[C@H]1C(=O)N[C@@H](CO)C(=O)N[C@@H](CCCCNC(=O)COCCOCCNC(=O)COCCOCCNC(=O)CC[C@H](NC(=O)CCCCCCCCCCCCC(=O)O)C(=O)O)C(N)=O)[C@@H](C)CC)[C@@H](C)CC [Example 264] (H-Y[Aib]EGT[αMePhe(2-F)]TSDY(Me)SI[αMeL]LD[Orn]IAQ[Aib]K([AEEA-AEEA-γGlu-C14 diacid])FI[dE][αMeY]LIEGGPSSGAPPPSK([AEEA-AEEA-γGlu-C14 diacid])-NH2) | > 9950 | > 9950 | 84.4 | 114 | 0.0208 |  | 105 | 113 | 0.413 |
